From patent US20060135494A1, “Methods of treating injuries of the nervous system associated with hemorrhage” (priority 2002, published 2006)

How the values were obtained:
[1] = system: collagenase-induced intrastriatal hemorrhage (ICH); assay: Hematoma (hemorrhagic lesion) volume in collagenase-induced ICH rat model; assay type: in vivo; details: for Protection (%) ICH core / Protection (%) Peri-ICH: mean ± SEM
Excerpt: All animals received humane care in compliance with the institute's guidelines as outlined in “Guide for the Care and Use of Laboratory Animals” prepared by the National Academy of Sciences and published by the National Institutes of Health (NIH publication no. 86-23, revised 1985). Female Sprague-Dawley rats (250-300 grams (g); Harlan Sprague-Dawley, Inc., Indianapolis, Ind.) were anesthesized with an intramuscular injection of a mixture of ketamine and xylazine and set in supine in a Kopf headholder. The right carotid artery, external and internal branches, was exposed and the distal end of the external carotid freed and retracted to line with the internal carotid. A PE-10 polyethylene tube (Becton-Dickinson, Sparks, Md.) was then introduced from the external into the internal carotid artery, and the former was ligated to hold the tube. TUDCA (Calbiochem-Novabiochem Corp., San Diego, Calif.) was dissolved in phosphate buffer, pH 7.4 at […] milligrams per milliliter (mg/ml). Saline or TUDCA solution (1 milliliter per kilogram body weight (ml/kg bw)) were injected directly into the internal carotid artery, within 5 minutes. Different concentrations of TUDCA (10, 50, 100, and 200 mg/kg bw) were administered 1 hour prior to, or 1, 3, and 6 hours after collagenase injection. The polyethylene tube was finally removed, the end of the external carotid artery cauterized, and the wound closed. To induce stroke injury, the animals were placed in a stereotaxic apparatus and ICH induced by collagenase infusion (Rosenberg et al., Stroke 1990;21:801-807 and Chesney et al., Stroke 1995;26:312-316). In brief, a midline incision was made through the scalp to expose the skull. […] (0.5 microliters per minute (μL/min)) of saline containing 0.5 unit (U) bacterial collagenase (type VII; Sigma Chemical Co., St. Louis, Mo.) was made stereotaxically into the striatum with a 10-μl Hamilton syringe at the following coordinates: 0.4 millimeter (mm) anterior and 3.0 mm lateral to bregma and 5.0 mm ventral to the cortical surface. Once the infusion was complete, the Hamilton syringe was left in place for 3 minutes. Body temperature was maintained at 37° C. with a CMA/150 temperature controller throughout the surgery. The rats recovered from surgery in a cage containing food and heated by an incandescent light bulb. Neurological testing was performed at 2 days after induction of ICH. The animals were then sacrificed, and the brains removed and frozen at −70° C. for either serial cryostat sectioning, or RNA and protein extraction. In a subset of animals, serum and brain samples were collected for bile acid analysis.
After behavioral testing, rats were sacrificed and the brains removed for serial cryostat sectioning. Volumes of hemorrhagic lesion, including core and peri-ICH regions, were quantitated using unbiased stereologic volumetric analysis of 20-μm cryostat sections after staining according to the Nissl protocol. Volumetric analysis was performed according to Cavalieri's method (Howard et al, Unbiased stereology: three-dimensional measurement in microscopy. New York: BIOS Scientific Publishers Ltd 1998). The areas of lesion were determined in 11 Nissl-stained sections 20 μm in thickness, 900 μm apart, from each animal. Volumes (mm^3) were calculated according to the formula V=T×a/p×ΣPi, where V=volume of interest, T=distance between sections (mm), a/p=area associated with each point (mm^2), and Pi=points hitting object in each section.

[2] = Bile acid analysis of serum and brain; assay type: in vivo, rat; details: single 100 mg/kg bw arterial dose
Excerpt: (§1) All animals received humane care in compliance with the institute's guidelines as outlined in “Guide for the Care and Use of Laboratory Animals” prepared by the National Academy of Sciences and published by the National Institutes of Health (NIH publication no. 86-23, revised 1985). Female Sprague-Dawley rats (250-300 grams (g); Harlan Sprague-Dawley, Inc., Indianapolis, Ind.) were anesthesized with an intramuscular injection of a mixture of ketamine and xylazine and set in supine in a Kopf headholder. The right carotid artery, external and internal branches, was exposed and the distal end of the external carotid freed and retracted to line with the internal carotid. A PE-10 polyethylene tube (Becton-Dickinson, Sparks, Md.) was then introduced from the external into the internal carotid artery, and the former was ligated to hold the tube. […]
Normal controls and rats with intrastriatal hematoma were sacrificed 1, 3, and 6 hours after TUDCA or vehicle injection. […] Bile acids were assessed by gas chromatography after organic solvent extraction, purification on Lipidex 1000, liquid-solid extraction, hydrolysis, isolation by lipophilic anion exchange chromatography and conversion to methyl ester-trimethylsilyl ether derivatives (Setchell et al., Gastroenterology 1997;112:226-235). Bile acid concentrations were expressed as nmol/g of tissue or as μmol/l of serum.

collagenase-induced ICH = assay: Neurological testing: limb placement / step initiation after ICH; assay type: in vivo, rat
Excerpt: as §1
The animals were tested for rotational behavior in response to apomorphine 2 days after surgery. Apomorphine (1 mg/kg bw; Sigma Chemical Co.) was injected subcutaneously, and rotations were determined by a computer-controlled Columbus Instruments Videomex-V system (Columbus, Ohio). […] Step initiation was assessed at 2 days after ICH by independently analyzing stepping behavior in the left and right forelimbs. […] The number of steps initiated by each limb was counted during a 1-minute period.

[3] = system: NF-κB/IκBα protein complex; assay: Immunoblotting and immunohistochemistry of NF-κB/IκBα in ICH rat brain; assay type: in vivo
Excerpt: All animals received humane care in compliance with the institute's guidelines as outlined in “Guide for the Care and Use of Laboratory Animals” prepared by the National Academy of Sciences and published by the National Institutes of Health (NIH publication no. 86-23, revised 1985). Female Sprague-Dawley rats (250-300 grams (g); Harlan Sprague-Dawley, Inc., Indianapolis, Ind.) were anesthesized with an intramuscular injection of a mixture of ketamine and xylazine and set in supine in a Kopf headholder. The right carotid artery, external and internal branches, was exposed and the distal end of the external carotid freed and retracted to line with the internal carotid. A PE-10 polyethylene tube (Becton-Dickinson, Sparks, Md.) was then introduced from the external into the internal carotid artery, and the former was ligated to hold the tube. TUDCA (Calbiochem-Novabiochem Corp., San Diego, Calif.) was dissolved in phosphate buffer, pH 7.4 at 400 milligrams per milliliter (mg/ml). Saline or TUDCA solution (1 milliliter per kilogram body weight (ml/kg bw)) were injected directly into the internal carotid artery, within 5 minutes. […]
Bcl-2 family, NF-κB, IκB, p-Akt, and p-Bad protein levels were determined from total protein homogenates separated by 12% sodium dodecyl sulfate polyacrylamide gel electrophoresis (SDS-PAGE). […]

[4] = 100 mg/kg bw TUDCA administered at 1 h
[5] = 100 mg/kg bw TUDCA administered at 3 h
[6] = 100 mg/kg bw TUDCA administered at 6 h

In the case of `C[C@H](CCC(=O)NCCS(=O)(=O)O)[C@H]1CC[C@H]2[C@@H]3[C@@H](O)C[C@@H]4C[C@H](O)CC[C@]4(C)[C@H]3CC[C@]12C` [TUDCA, tauroursodeoxycholic acid], the “hemorrhagic lesions larger in vehicle-injected group compared with TUDCA-treated rats” value ([1]; 100 mg/kg bw TUDCA 1 hour before collagenase, 2 days) is reported as “approximately 50%”, the “protective effect on volume of brain lesioned” value ([1]; 100 mg/kg bw TUDCA 1 hour before or up to 3 hours after hemorrhage, 2 days) is reported as 40-50% and the “protective effect on volume of brain lesioned” value ([1]; 100 mg/kg bw TUDCA 6 hours after collagenase infusion) is reported as “partially lost but still evident”. For the same compound, the “Protection (%) ICH core” value [1, 4] was 47.7 ± 3.2 %, the “Protection (%) Peri-ICH” value [1, 4] was 48.6 ± 3.5 % and the “Protection (%) ICH core” value [1, 5] was 30.0 ± 18.9 %. The “Protection (%) Peri-ICH” value [1, 5] was 42.8 ± 14.9 %, the “Protection (%) ICH core” value [1, 6] was 20.9 ± 12.9% and the “Protection (%) Peri-ICH” value [1, 6] was 38.7 ± 12.9 %. For the same compound, the hemorrhagic lesion volume ([1]; 100 mg/kg bw TUDCA into internal carotid artery 1 hour before collagenase, 2 days after infusion, mean±SEM) was 143.9±46.5 mm^3, the “reduction in lesion volume” value ([1]; 200 mg/kg bw TUDCA 1 hour before collagenase, 2 days) was roughly 60% and the “protection of lesion volume” value ([1]; 10 and 50 mg/kg bw dose regimens, 1 hour before collagenase) was “significantly less protective”. For the same compound, the concentration at 3 h ([2]; female, Sprague-Dawley, rat, serum, other: injected directly into the internal carotid artery, 3 hours following injection (from 0.3)) was 10.6 µM, the “increase in brain concentrations of the bile acid compared with vehicle-injected controls” value ([2]; 3 hours) was 10 fold and the “improved motor activity in test of limb placement” value (collagenase-induced ICH; time-course experiment of TUDCA administration, 2 days after ICH) was 25-40%. The “steps initiated by left forelimb in 1-minute period versus vehicle” value (collagenase-induced ICH; unilateral striatal hemorrhage, 2 days) was “significantly more steps”, the “NF-κB activation in the peri-ICH region (immunohistochemistry, words)” value ([3]; 100 mg/kg bw TUDCA, 2 days after ICH) was “markedly decreased” and the “IκBα protein level (Western blot, words)” value ([3]; increasing doses of TUDCA (10-200 mg/kg bw) 1 hour before collagenase, ipsilateral hemisphere) was “largely restored”.
